Test results taken from the supplement of paper PMC6315032.

Legend:
Test in all cases: apparent dissociation constant (pKDapp, Kinobeads competition, Cheng-Prusoff corrected) (-log10 M); higher = tighter binding
ABL1 = ABL1 (UniProt P00519); conditions: affinity matrix / lysate: Kinobeads, mixed HEK293/K-562/placenta lysate
BMPR1A = BMPR1A (UniProt P36894); conditions: affinity matrix / lysate: Kinobeads, mixed HEK293/K-562/placenta lysate
CAMK2B = CAMK2B (UniProt Q13554); conditions: affinity matrix / lysate: Kinobeads, mixed HEK293/K-562/placenta lysate
CDC42BPA = CDC42BPA (UniProt Q5VT25); conditions: affinity matrix / lysate: Kinobeads, mixed HEK293/K-562/placenta lysate
DAPK1 = DAPK1 (UniProt P53355); conditions: affinity matrix / lysate: Kinobeads, mixed HEK293/K-562/placenta lysate
DYRK1A = DYRK1A (UniProt Q13627); conditions: affinity matrix / lysate: Kinobeads, mixed HEK293/K-562/placenta lysate
EPHA7 = EPHA7 (UniProt Q15375); conditions: affinity matrix / lysate: Kinobeads, mixed HEK293/K-562/placenta lysate
FYN = FYN (UniProt P06241); conditions: affinity matrix / lysate: Kinobeads, mixed HEK293/K-562/placenta lysate
GSK3B = GSK3B (UniProt P49841); conditions: affinity matrix / lysate: Kinobeads, mixed HEK293/K-562/placenta lysate
HIPK2 = HIPK2 (UniProt Q9H2X6); conditions: affinity matrix / lysate: Kinobeads, mixed HEK293/K-562/placenta lysate
ITK = ITK (UniProt Q08881); conditions: affinity matrix / lysate: Kinobeads, mixed HEK293/K-562/placenta lysate
LATS2 = LATS2 (UniProt Q9NRM7); conditions: affinity matrix / lysate: Kinobeads, mixed HEK293/K-562/placenta lysate
LIMK2 = LIMK2 (UniProt P53671); conditions: affinity matrix / lysate: Kinobeads, mixed HEK293/K-562/placenta lysate
LYN = LYN (UniProt P07948); conditions: affinity matrix / lysate: Kinobeads, mixed HEK293/K-562/placenta lysate
MARK4 = MARK4 (UniProt Q96L34); conditions: affinity matrix / lysate: Kinobeads, mixed HEK293/K-562/placenta lysate
MINK1 = MINK1 (UniProt Q8N4C8); conditions: affinity matrix / lysate: Kinobeads, mixed HEK293/K-562/placenta lysate
NEK2 = NEK2 (UniProt P51955); conditions: affinity matrix / lysate: Kinobeads, mixed HEK293/K-562/placenta lysate
PAK4 = PAK4 (UniProt O96013); conditions: affinity matrix / lysate: Kinobeads, mixed HEK293/K-562/placenta lysate
PCTK2 = PCTK2 (UniProt Q00537); conditions: affinity matrix / lysate: Kinobeads, mixed HEK293/K-562/placenta lysate
PI4KB = PI4KB (UniProt Q9UBF8); conditions: affinity matrix / lysate: Lipid Kinobeads, mixed HeLa/Jurkat/K-562 lysate
PIK3CB = PIK3CB (UniProt P42338); conditions: affinity matrix / lysate: Lipid Kinobeads, mixed HeLa/Jurkat/K-562 lysate
PIM2 = PIM2 (UniProt Q9P1W9); conditions: affinity matrix / lysate: Kinobeads, mixed HEK293/K-562/placenta lysate
PLK4 = PLK4 (UniProt O00444); conditions: affinity matrix / lysate: Kinobeads, mixed HEK293/K-562/placenta lysate
PTK2B = PTK2B (UniProt Q14289); conditions: affinity matrix / lysate: Kinobeads, mixed HEK293/K-562/placenta lysate
RPS6KA1 = RPS6KA1 (UniProt Q15418); conditions: affinity matrix / lysate: Kinobeads, mixed HEK293/K-562/placenta lysate
RPS6KA3 = RPS6KA3 (UniProt P51812); conditions: affinity matrix / lysate: Kinobeads, mixed HEK293/K-562/placenta lysate
RPS6KA5 = RPS6KA5 (UniProt O75582); conditions: affinity matrix / lysate: Kinobeads, mixed HEK293/K-562/placenta lysate
STK33 = STK33 (UniProt Q9BYT3); conditions: affinity matrix / lysate: Kinobeads, mixed HEK293/K-562/placenta lysate
STK35 = STK35 (UniProt Q8TDR2); conditions: affinity matrix / lysate: Kinobeads, mixed HEK293/K-562/placenta lysate
TAOK3 = TAOK3 (UniProt Q9H2K8); conditions: affinity matrix / lysate: Kinobeads, mixed HEK293/K-562/placenta lysate
TNIK = TNIK (UniProt Q9UKE5); conditions: affinity matrix / lysate: Kinobeads, mixed HEK293/K-562/placenta lysate
TTK = TTK (UniProt P33981); conditions: affinity matrix / lysate: Kinobeads, mixed HEK293/K-562/placenta lysate
ULK3 = ULK3 (UniProt Q6PHR2); conditions: affinity matrix / lysate: Kinobeads, mixed HEK293/K-562/placenta lysate
ULK3, sequence (Q6PHR2 whole entry): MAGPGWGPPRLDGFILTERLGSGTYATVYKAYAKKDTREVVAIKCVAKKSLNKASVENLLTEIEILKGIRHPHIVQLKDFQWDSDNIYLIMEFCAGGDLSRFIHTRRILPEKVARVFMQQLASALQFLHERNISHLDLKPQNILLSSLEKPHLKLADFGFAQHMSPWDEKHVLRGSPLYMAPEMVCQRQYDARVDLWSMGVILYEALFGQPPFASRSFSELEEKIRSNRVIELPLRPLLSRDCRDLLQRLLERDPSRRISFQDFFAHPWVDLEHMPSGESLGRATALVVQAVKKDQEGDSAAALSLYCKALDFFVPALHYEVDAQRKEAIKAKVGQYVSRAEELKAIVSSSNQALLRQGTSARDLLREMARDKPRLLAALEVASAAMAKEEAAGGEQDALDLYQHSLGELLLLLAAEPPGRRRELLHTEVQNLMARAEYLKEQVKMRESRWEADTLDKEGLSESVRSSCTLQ

EPHA7, sequence (Q15375 whole entry, looked up): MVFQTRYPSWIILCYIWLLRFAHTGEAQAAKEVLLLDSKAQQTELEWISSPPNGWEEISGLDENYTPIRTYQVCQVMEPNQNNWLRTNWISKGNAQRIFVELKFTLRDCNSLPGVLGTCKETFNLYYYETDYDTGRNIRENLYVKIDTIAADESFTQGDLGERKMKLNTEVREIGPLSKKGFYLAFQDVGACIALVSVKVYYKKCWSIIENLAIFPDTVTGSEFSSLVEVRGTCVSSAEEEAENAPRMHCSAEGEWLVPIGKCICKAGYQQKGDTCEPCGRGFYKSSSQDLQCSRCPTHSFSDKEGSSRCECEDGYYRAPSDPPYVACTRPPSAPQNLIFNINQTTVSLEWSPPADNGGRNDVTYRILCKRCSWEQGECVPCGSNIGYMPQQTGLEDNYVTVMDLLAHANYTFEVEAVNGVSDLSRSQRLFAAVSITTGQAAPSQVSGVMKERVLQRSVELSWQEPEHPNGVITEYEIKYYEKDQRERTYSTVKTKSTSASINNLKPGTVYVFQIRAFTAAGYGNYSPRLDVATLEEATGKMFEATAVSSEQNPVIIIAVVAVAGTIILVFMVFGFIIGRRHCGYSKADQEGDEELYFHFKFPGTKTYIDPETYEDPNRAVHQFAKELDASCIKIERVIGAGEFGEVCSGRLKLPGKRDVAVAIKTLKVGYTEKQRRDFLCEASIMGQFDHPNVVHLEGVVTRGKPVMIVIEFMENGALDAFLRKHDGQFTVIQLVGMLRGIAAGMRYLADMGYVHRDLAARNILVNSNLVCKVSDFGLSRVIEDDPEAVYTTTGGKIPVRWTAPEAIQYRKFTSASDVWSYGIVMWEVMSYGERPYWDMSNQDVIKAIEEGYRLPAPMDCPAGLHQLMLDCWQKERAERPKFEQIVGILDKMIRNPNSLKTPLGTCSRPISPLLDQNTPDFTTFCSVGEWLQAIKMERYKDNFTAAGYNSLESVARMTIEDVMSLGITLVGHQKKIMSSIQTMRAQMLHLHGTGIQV
NEK2, sequence (P51955 whole entry): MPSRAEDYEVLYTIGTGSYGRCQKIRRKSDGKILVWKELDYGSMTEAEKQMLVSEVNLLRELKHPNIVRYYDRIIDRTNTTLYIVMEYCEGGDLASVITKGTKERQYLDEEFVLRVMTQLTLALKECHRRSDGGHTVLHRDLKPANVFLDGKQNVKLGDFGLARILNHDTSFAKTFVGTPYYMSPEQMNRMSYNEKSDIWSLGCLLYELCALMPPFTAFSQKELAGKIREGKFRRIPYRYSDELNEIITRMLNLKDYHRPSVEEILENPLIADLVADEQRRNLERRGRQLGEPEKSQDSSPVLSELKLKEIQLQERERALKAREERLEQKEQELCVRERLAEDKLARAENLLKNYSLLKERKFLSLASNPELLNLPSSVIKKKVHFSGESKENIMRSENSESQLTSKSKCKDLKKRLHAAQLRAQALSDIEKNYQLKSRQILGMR
ITK, sequence (Q08881 whole entry): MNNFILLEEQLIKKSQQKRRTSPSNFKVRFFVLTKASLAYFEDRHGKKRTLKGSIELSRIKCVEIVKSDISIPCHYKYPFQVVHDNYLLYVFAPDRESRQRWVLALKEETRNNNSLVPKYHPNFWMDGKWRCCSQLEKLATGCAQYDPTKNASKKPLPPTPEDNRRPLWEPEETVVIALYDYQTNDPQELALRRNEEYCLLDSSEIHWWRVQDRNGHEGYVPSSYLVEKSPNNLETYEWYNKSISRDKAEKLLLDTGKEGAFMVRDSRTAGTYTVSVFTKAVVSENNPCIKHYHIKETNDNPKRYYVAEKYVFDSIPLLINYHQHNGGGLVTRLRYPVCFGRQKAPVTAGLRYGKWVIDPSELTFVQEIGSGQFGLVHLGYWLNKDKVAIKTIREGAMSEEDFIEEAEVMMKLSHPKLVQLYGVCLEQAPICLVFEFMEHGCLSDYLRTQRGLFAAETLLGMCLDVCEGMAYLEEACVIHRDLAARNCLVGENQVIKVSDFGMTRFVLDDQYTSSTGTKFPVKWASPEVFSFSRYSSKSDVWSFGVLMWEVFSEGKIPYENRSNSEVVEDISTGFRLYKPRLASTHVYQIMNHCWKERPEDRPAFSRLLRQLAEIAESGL
LATS2, sequence (Q9NRM7 whole entry): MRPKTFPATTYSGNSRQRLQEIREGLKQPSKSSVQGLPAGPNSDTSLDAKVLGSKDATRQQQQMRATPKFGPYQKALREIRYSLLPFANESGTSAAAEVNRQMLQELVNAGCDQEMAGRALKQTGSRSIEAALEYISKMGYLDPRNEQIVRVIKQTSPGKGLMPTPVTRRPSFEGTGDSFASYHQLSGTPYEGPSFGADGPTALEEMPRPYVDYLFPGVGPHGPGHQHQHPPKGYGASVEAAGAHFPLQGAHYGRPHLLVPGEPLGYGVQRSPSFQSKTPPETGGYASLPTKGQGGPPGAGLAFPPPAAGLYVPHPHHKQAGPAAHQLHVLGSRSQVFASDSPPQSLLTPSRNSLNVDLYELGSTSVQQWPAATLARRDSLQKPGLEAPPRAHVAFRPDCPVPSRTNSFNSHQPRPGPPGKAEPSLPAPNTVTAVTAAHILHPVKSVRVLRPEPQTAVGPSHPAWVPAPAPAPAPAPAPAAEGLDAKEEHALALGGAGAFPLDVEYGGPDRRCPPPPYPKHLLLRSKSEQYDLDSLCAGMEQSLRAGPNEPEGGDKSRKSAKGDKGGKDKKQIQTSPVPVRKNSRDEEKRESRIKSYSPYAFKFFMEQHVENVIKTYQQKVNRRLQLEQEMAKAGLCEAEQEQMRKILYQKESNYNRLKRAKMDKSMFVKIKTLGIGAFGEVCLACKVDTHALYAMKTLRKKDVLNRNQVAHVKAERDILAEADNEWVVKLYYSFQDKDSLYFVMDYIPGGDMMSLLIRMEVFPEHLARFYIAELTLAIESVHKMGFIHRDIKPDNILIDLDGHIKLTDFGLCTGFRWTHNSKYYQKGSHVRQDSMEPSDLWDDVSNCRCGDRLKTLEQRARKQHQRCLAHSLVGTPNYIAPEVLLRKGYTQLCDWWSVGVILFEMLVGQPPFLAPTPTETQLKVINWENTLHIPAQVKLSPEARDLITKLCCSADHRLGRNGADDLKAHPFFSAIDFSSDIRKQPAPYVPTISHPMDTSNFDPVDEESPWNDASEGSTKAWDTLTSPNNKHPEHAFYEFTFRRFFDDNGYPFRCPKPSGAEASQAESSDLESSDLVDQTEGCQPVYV
CAMK2B, sequence (Q13554 whole entry): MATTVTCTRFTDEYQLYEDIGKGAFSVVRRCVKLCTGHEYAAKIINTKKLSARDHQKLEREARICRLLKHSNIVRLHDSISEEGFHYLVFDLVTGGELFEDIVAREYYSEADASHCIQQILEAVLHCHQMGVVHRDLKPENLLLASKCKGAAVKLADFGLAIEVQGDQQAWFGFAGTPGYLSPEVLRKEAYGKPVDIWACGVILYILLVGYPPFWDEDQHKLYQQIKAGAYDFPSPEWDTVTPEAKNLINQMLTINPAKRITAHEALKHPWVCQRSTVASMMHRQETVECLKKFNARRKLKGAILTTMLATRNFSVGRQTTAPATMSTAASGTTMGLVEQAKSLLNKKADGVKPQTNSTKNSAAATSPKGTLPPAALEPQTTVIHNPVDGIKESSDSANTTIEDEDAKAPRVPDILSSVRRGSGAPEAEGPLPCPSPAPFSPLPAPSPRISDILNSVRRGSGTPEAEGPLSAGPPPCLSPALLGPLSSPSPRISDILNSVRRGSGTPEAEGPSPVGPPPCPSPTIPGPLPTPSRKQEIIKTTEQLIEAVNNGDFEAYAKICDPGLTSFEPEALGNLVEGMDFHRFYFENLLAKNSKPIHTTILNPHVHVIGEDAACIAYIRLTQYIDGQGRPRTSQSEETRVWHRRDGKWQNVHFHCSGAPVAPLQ
STK33, sequence (Q9BYT3 whole entry, looked up): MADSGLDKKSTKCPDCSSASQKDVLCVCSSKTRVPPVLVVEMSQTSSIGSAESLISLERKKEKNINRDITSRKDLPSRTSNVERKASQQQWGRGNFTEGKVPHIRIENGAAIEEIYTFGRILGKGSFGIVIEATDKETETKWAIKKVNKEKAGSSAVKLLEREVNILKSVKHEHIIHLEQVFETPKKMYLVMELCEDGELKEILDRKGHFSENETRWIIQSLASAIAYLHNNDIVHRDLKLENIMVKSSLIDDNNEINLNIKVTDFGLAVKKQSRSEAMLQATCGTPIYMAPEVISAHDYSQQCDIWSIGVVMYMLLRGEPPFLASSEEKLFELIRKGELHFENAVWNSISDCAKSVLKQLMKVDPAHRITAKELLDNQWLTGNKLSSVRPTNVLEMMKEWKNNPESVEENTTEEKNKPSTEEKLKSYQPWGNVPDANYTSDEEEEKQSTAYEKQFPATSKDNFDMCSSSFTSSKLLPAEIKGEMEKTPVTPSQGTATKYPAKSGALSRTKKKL

apparent dissociation constant (-log10 M) (ABL1)	apparent dissociation constant (-log10 M) (BMPR1A)	apparent dissociation constant (-log10 M) (CAMK2B)	apparent dissociation constant (-log10 M) (CDC42BPA)	apparent dissociation constant (-log10 M) (DAPK1)	apparent dissociation constant (-log10 M) (DYRK1A)	apparent dissociation constant (-log10 M) (EPHA7)	apparent dissociation constant (-log10 M) (FYN)	apparent dissociation constant (-log10 M) (GSK3B)	apparent dissociation constant (-log10 M) (HIPK2)	apparent dissociation constant (-log10 M) (ITK)	apparent dissociation constant (-log10 M) (LATS2)	apparent dissociation constant (-log10 M) (LIMK2)	apparent dissociation constant (-log10 M) (LYN)	apparent dissociation constant (-log10 M) (MARK4)	apparent dissociation constant (-log10 M) (MINK1)	apparent dissociation constant (-log10 M) (NEK2)	apparent dissociation constant (-log10 M) (PAK4)	apparent dissociation constant (-log10 M) (PCTK2)	apparent dissociation constant (-log10 M) (PI4KB)	apparent dissociation constant (-log10 M) (PIK3CB)	apparent dissociation constant (-log10 M) (PIM2)	apparent dissociation constant (-log10 M) (PLK4)	apparent dissociation constant (-log10 M) (PTK2B)	apparent dissociation constant (-log10 M) (RPS6KA1)	apparent dissociation constant (-log10 M) (RPS6KA3)	apparent dissociation constant (-log10 M) (RPS6KA5)	apparent dissociation constant (-log10 M) (STK33)	apparent dissociation constant (-log10 M) (STK35)	apparent dissociation constant (-log10 M) (TAOK3)	apparent dissociation constant (-log10 M) (TNIK)	apparent dissociation constant (-log10 M) (TTK)	apparent dissociation constant (-log10 M) (ULK3)	SMILES
< 6	< 6	< 6	< 6	< 6	< 6	< 6	< 6	< 6	< 6	< 6	< 6	< 6	< 6	< 6	< 6	< 6	< 6	< 6	< 6	< 6	< 6	< 6	< 6	< 6	< 6	< 6	< 6	< 6	< 6	< 6	< 6	< 6	CCNC(=O)Nc1ccc(-c2nc(N3CCOC[C@@H]3C)c3c(n2)C(C)(C)S(=O)(=O)C3)cc1 [CZ415]
< 6	< 6	< 6	< 6	< 6	< 6	< 6	< 6	< 6	< 6	< 6	< 6	< 6	< 6	< 6	< 6	< 6	< 6	< 6	< 6	< 6	< 6	< 6	< 6	< 6	< 6	< 6	< 6	< 6	< 6	< 6	< 6	< 6	COc1ccc(-c2ccc3c(N4CCOC[C@@H]4C)nc(N4CCOC[C@@H]4C)nc3n2)cc1CO [AZD8055]
